In patent publication US20040043959A1, “Combination therapies for treating methylthioadenosine phosphorylase deficient cells” (priority 2002, published 2004):

Legend:
[1] = test system: MTAP-competent NCI-H460 cells; assay: MTT growth inhibition by Compound 1 or 3 with and without MTA; assay type: cell-based, human; conditions: FIG. 7
Experimental: Cells were plated in columns 2-12 of a 96-well microtiter plate, with column 2 designated as the vehicle control. The same volume of medium was added to column 1. Column 1 was designated as the media control. After a 4-hour incubation, the cells were treated with Compound 7, with or without a non-growth inhibitory concentration of MTA, in quadruplicate wells. […] MTT (4,5-dimethylthiazol-2-yl)-2,5-diphenyl tetrazolium bromide; Sigma, St. Louis, Mo.) was added to a final concentration of 0.25-1 mg/ml in each well, and the plates were incubated for 4 hours. The liquid was removed from each well. DMSO was added to each well, then the plates were vortexed slowly in the dark for 7-20 minutes. The formazin product was quantified spectrophotometrically at […] on a Molecular Devices Vmax™ kinetic microplate reader.

[2] = target: T1, human membrane folate-binding protein (mFBP) (Homo sapiens, UniProt P15328); assay: competitive binding assay against 3H-folic acid with mFBP prepared from KB cells
T1 construct: mFBP prepared from cultured KB cells (human nasopharyngeal carcinoma cells); endogenous in cells
Description: The dissociation constant (Kd) of the preferred inhibitors of the present invention for human membrane folate-binding protein (mFBP) can be determined in a competitive binding assay using mFBP prepared from cultured KB cells (human nasopharyngeal carcinoma cells) as disclosed in U.S. Pat. No. 5,646,141, the disclosures of which is hereby incorporated by reference in its entirety.
Human membrane folate binding protein can be obtained from KB cells by methods well known in the art. KB cells are washed, sonicated for cell lysis and centrifuged to form pelleted cells. The pellet can then be stripped of endogenous bound folate by resuspension in acidic buffer (KH2PO4—KOH and 2-mercaptoethanol) and centrifuged again. The pellet is then resuspended and the protein content quantitated using the Bradford method with bovine serum albumin (BSA) as standard.
Disassociation constants are determined by allowing, the test inhibitor to compete against ^3H-folic acid for binding to mFBP. Reaction mixtures are designed to generally contain mFBP, ^3H-folic acid, and various concentrations of the subject test inhibitor in acidic buffer (KH2PO4—KOH and 2-mercaptoethanol). The competition reaction is typically conducted at 25°. Because of the slow nature of release of bound ^3H-folic acid, the test inhibitor may be prebound prior to addition of bound ^3H-folic acid, after which the reaction should be allowed to equilibriate. The full reaction mixtures then should be drawn through nitrocellulose filters to isolate the cell membranes with bound ^3H-folic acid. The trapped mFBP are then washed and measured by scintillation counting. The data can then be nonlinearly fitted as described above in determining Ki. The mFBP Kd for ^3H-folic acid, used for calculating the competitor Kd, can be obtained by directly titrating mFBP with ^3H-folate. The mFBP Kd can then be used to calculate the competitor Kd by nonlinear fitting of the data to an equation for tight-binding Kc. Table 1 below provides the Kd values of several GARFT inhibitors using the assay described above.

Human MTAP = target: T2, Human MTAP (Homo sapiens, UniProt Q13126); assay: MTAP substrate assay, coupled spectrophotometric (adenine, xanthine oxidase); assay type: biochemical; conditions: 2 nM MTAP; for activity at 50 µM: 10 min, read-out: MT-A—50: initial velocity as a percentage of the initial velocity with MTA as substrate; for MT-A—10: initial velocity as a percentage of the initial velocity with MTA as substrate: compound 10 uM, relative to MTA at 10 uM
T2 construct: six-histidine tag (His6) (N); made in house; host or cells: E. coli BL21 DE3
T2 sequence (Q13126 1-283): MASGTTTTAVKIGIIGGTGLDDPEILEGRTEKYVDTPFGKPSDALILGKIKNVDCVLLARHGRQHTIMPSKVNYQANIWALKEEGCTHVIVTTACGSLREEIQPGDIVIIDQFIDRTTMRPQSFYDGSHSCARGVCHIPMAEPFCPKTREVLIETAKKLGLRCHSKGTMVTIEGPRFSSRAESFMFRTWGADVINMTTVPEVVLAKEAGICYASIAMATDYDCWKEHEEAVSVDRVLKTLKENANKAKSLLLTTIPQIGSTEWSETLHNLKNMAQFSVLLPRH
How it was run: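 Detection was xanthine oxidase-coupled (0.8 units/ml), reading adenine-derived absorbance at 305 nm over 10 min in potassium phosphate/DTT buffer at 37° C, with N-His6 enzyme purified from E. coli.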

AICARFT = target: T3, AICARFT (Homo sapiens, UniProt P31939); conditions: cited from earlier work
T3 construct: the catalytic domain of the human enzyme and its substrate (i.e., GARFT and GAR, or AICARFT and AICAR)

[3] = test system: BxPC-3 cells transfected with the MTAP gene; assay: colony formation cytotoxicity, 6 h drug exposure; assay type: cell-based, human; conditions: 1.5 μM Compound 7 with 50 μM anti-toxicity agent, FIG. 5a
Experimental: (§1) Cytoxicity data was collected using BxPC-3, PANC-1 and HT-1080 cells which were cultured in Iscove's medium supplemented with 10% dialyzed, horse serum, 5% nonessential amino acids and 5% sodium pyruvate.
(§2) Mid-log-phase cells were trypsinized and placed in 60 mm tissue culture dishes at 200 or 250 cells per dish. Cells from each cell line were left to attach for 4 hours and then were treated with Compound 7, with or without MTA or dcSAMe, in 5-fold serial dilutions for 6 or 24 hours. For data shown in FIGS. 5a and 5b, cells were exposed to drug(s) for 6 hours only. For data shown in FIG. 6, cells were exposed to Compound 7 for 24 hours and to MTA continuously for the duration of colony growth (i.e. 24 hours and thereafter). Cells were next washed with PBS, and then fixed and stained with 1% w/v crystal violet in 25% methanol (Sigma, St. Louis, Mo.). After washing the dishes 2-3 times. with deionized water, the colonies were counted. Triplicate dishes were used for each drug concentration.

MTAP-deficient BxPC-3 = assay: colony formation cytotoxicity, 6 h drug exposure; assay type: cell-based, human; conditions: Compound 7 with 50 μM anti-toxicity agent, FIG. 5b
Experimental: as §1, §2

[4] = compound 50 uM, relative to MTA at 50 uM

T1 sequence (P15328 25-234): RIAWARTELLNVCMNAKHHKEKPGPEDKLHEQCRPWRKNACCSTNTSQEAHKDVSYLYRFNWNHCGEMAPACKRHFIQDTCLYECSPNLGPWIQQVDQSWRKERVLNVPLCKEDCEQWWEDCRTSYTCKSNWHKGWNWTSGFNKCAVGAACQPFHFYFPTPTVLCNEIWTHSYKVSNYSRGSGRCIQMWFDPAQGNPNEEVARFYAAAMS
T3 sequence (P31939 199-592 limits assumed): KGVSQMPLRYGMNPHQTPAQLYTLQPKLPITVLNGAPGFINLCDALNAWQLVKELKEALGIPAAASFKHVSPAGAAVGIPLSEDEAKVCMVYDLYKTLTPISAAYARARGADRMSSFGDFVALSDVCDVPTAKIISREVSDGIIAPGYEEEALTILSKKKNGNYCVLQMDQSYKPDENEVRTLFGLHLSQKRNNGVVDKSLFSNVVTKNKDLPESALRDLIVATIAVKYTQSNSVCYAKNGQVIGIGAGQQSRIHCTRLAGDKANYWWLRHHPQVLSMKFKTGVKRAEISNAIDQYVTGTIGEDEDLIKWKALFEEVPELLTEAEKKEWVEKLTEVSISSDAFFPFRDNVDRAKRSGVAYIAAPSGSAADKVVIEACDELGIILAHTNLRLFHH

Molecule | activity at 50 µM (Human MTAP; [4]) [%] | MT-A—10: initial velocity as a percentage of the initial velocity with MTA as substrate (Human MTAP) [%] | other results
Cc1cc(C(=O)N[C@@H](CCC(=O)O)C(=O)O)sc1CC[C@H]1CNc2nc(N)[nH]c(=O)c2S1 (single isomer, unassigned) [Compound 3] |  |  | factor by which MTA reduced the growth inhibitory activity [1]: greater than 5; Kd [2]: 0.0042 nM
Cc1cnc(SC[C@H]2O[C@@H](n3cnc4c(N)ncnc43)[C@H](O)[C@@H]2O)nc1O [2(G)(155), (2R, 3R, 4S, 5S)-2-(6-amino-9H-purin-9-yl)-5-{[(4-hydroxy-5-methyl-pyrimidin-2-yl)thio]-methyl}tetrahydrofuran-3,4-diol] | 39 | 22.5 | 
CC(SC[C@H]1O[C@@H](n2cnc3c(N)ncnc32)[C@H](O)[C@@H]1O)c1ccccc1 (stereo partly drawn) [2(G)(156), (2R, 3R, 4S, 5S)-2-(6-amino-9H-purin-9-yl)-5-{[(1-phenylethyl)thio]-methyl}tetrahydrofuran-3,4-diol] | 33 | 6 | 
Nc1ncnc2c1ncn2[C@@H]1O[C@H](CSc2ccccc2CO)[C@@H](O)[C@H]1O [2(G)(157), (2R, 3R, 4S, 5S)-2-(6-amino-9H-purin-9-yl)-5-({[2-(hydroxymethyl)-phenyl]thio}methyl)tetra-hydrofuran-3,4-diol] | 15.5 | 32.5 | 
Cc1nc(SC[C@H]2O[C@@H](n3cnc4c(N)ncnc43)[C@H](O)[C@@H]2O)nc(O)c1C [2(G)(158), (2R, 3R, 4S, 5S)-2-(6-amino-9H-purin-9-yl)-5-{[(4-hydroxy-5,6-dimethylpyrimidin-2-yl)-thio]methyl}tetrahydro-furan-3,4-diol] | 43.5 | 7 | 
NC(=O)CSC[C@H]1O[C@@H](n2cnc3c(N)ncnc32)[C@H](O)[C@@H]1O [2(G)(159), 2-({[(2S, 3S, 4R, 5R)-5-(6-amino-9H-purin-9-yl)-3,4-dihydroxytetrahydro-furan-2-yl)methyl}thio)-acetamide] | 28 | 7.5 | 
Nc1ncnc2c1ncn2[C@@H]1O[C@H](CSc2nccn2Cc2ccccc2)[C@@H](O)[C@H]1O [2(G)(160), (2R, 3R, 4S, 5S)-2-(6-amino-9H-purin-9-yl)-5-{[(1-benzyl-1H-imidazol-2-yl)thio]methyl}tetra-hydrofuran-3,4-diol] | 17 | 12 | 
CNC(=O)c1ccccc1SC[C@H]1O[C@@H](n2cnc3c(N)ncnc32)[C@H](O)[C@@H]1O [2(G)(161), 2-({[(2S, 3S, 4R, 5R)-5-(6-amino-9H-purin-9-yl)-3,4-dihydroxytetrahydro-furan-2-yl]methyl}thio)-N-methylbenzamide] | 28 | 14.5 | 
CCCc1cc(O)nc(SC[C@H]2O[C@@H](n3cnc4c(N)ncnc43)[C@H](O)[C@@H]2O)n1 [2(G)(162), (2R, 3R, 4S, 5S)-2-(6-amino-9H-purin-9-yl)-5-{[(4-hydroxy-6-propylpyrimidin-2-yl)-thio]methyl}tetrahydro-furan-3,4-diol] | 39.5 | 29 | 
Nc1ncnc2c1ncn2[C@@H]1O[C@H](CSc2nc3cc(Cl)ccc3o2)[C@@H](O)[C@H]1O [2(G)(163), (2R, 3R, 4S, 5S)-2-(6-amino-9H-purin-9-yl)-5-{[(5-chloro-1,3-benz-oxazol-2-yl)thio]methyl}-tetrahydrofuran-3,4-diol] | 26.5 | 12 | 
COC(=O)c1cnc(SC[C@H]2O[C@@H](n3cnc4c(N)ncnc43)[C@H](O)[C@@H]2O)n1C [2(G)(164), Methyl 2-({[(2S, 3S, 4R, 5R)-5-(6-amino-9H-purin-9-yl)-3,4-dihydroxy-tetrahydrofuran-2-yl]methyl}thio)-1-methyl-1H-imidazole-5-carboxylate] | 29 | 13.5 | 
CC(C)(C)c1cc(O)nc(SC[C@H]2O[C@@H](n3cnc4c(N)ncnc43)[C@H](O)[C@@H]2O)n1 [2(G)(165), (2R, 3R, 4S, 5S)-2-(6-amino-9H-purin-9-yl)-5-{[(4-tert-butyl-6-hydroxypyrimidin-2-yl)thio]methyl}tetrahydro-furan-3,4-diol] | 33.5 | 25 | 
Nc1nc(N)c(SCCc2ccc(C(=O)N[C@@H](CCC(=O)O)C(=O)O)s2)c(=O)[nH]1 [Compound 1, N-[5-(2[(2,6-diamino-4(3H)-oxopyrimidin5yl)thio]ethyl)thieno-2-yl]-L-glutamic acid] |  |  | Ki (specific inhibitor of AICARFT) (AICARFT): micromolar; factor by which MTA reduced the growth inhibitory activity [1]: 3
Cc1cc(C(=O)N[C@@H](CCC(=O)O)C(=O)O)sc1CCCSc1c(N)nc(N)[nH]c1=O [Compound 2] |  |  | Kd [2]: 136 nM
Cc1cc(C(=O)N[C@@H](CCC(=O)O)C(=O)O)sc1CC[C@@H]1CNc2nc(N)[nH]c(=O)c2S1 [Compound 4, 4-[2-(2-Amino-4-oxo-4,6,7,8-tetraydro-3H-pyrimido[5,4-b][1,4]thiazin-6-yl)-(R)-ethyl]-3-methyl-2-thienoyl-5-amino-L-glutamic acid] |  |  | Kd [2]: 1 nM
Cc1cc(C(=O)N[C@@H](CCC(=O)O)C(=O)O)sc1CC[C@H]1CNc2nc(N)[nH]c(=O)c2S1 [Compound 5, 4-[2-(2-Amino-4-oxo-4,6,7,8-tetrahydro-3H-pyrimido[5,4-b][1,4]thiazin-6-yl)-(S)-ethyl]-3-methyl-2-thienoyl-5-amino-L-glutamic acid] |  |  | Kd [2]: 0.71 nM
C[S+](CCCN)CC1OC(n2cnc3c(N)ncnc32)C(O)C1O (stereo not drawn) [dcSAMe, decarboxylated S-adenosylmethionine] |  |  | cell survival [3]: 100%; effect on cell survival (MTAP-deficient BxPC-3): increased cell survival by less than observed for the MTAP competent cells
(2R, 3R, 4S, 5S)-2-(6- amino-9H-purin-9-yl)-5- {[(5-chloro-1H- yl)thio]methyl}tetrahydro- furan-3,4-diol [2(G)(5)] |  | 5 | MT-A—50: initial velocity as a percentage of the initial velocity with MTA as substrate (Human MTAP; [4]): 2%
